Reference: paper PMC12249711, “Comprehensive Evaluation of 1H-Isoindole-1,3(2H)-Dione Derivatives: Pharmacokinetic Studies and Analgesic Potential in Various Pain Models” (International Journal of Molecular Sciences, 2025)

Legend:
[1] = parameters: method as in PMID 35396875; settings: within the tested dose range; cited from earlier work
rats [2] = assay: Carrageenan-induced paw edema (plethysmometer); type: in vivo, Wistar rats; settings: for Change in Edema Volume: mean ± SEM, rats; for Reduction in edema volume: vs control
Protocol: The acute and local inflammation and paw edema was induced by intraplantar (i.pl.) injection of 0.1 mL of 1% carrageenan solution in PBS into the rat’s right hind paw, according to the modified method of Winter and Lence, as described previously; (n = 84). […] Vehicle (1% Tween 80) was administered by the same route as the tested compounds.

mice [3] = assay: Glutamate-induced pain test; type: in vivo, Albino Swiss mice; settings: vs vehicle
Protocol: Prior to the experimental procedure, individual mice were acclimatized in an observation chamber (n = 128). Thirty minutes before the test, the compounds under investigation were administered intraperitoneally (i.p.). A volume of 20 μL of a glutamate solution, containing 30 μmol per mouse paw, was subcutaneously injected into the ventral surface of the right hind paw to induce a pain response. Glutamate-induced nociception was assessed 15 min post-injection. The duration of time spent licking the injected paw was recorded using a chronometer and was interpreted as an indicator of nociception.

mice [4] = assay: Capsaicin-induced neurogenic pain test; type: in vivo, Albino Swiss mice; settings: vs vehicle
Protocol: The examined compounds were administered 30 min before the test (n = 112). The pain reaction was induced by injecting 20 μL of a capsaicin solution prepared in saline (1.6 μg capsaicin per mouse paw) into the dorsal surface of the right hind paw for further details. The animals were immediately placed individually into glass beakers and the amount of time spent licking the injected paw was recorded for 5 min with a chronometer.

rats [5] = assay: Carrageenan-induced mechanical hyperalgesia (pain pressure threshold, Randall-Selitto); type: in vivo, Wistar rats; settings: for Pain Threshold: mean ± SEM, rats; for Increase in pain threshold: vs control
Protocol: The acute and local inflammation and paw edema was induced by intraplantar (i.pl.) injection of 0.1 mL of 1% carrageenan solution in PBS into the rat’s right hind paw, according to the modified method of Winter and Lence, as described previously; (n = 84). The paw volume was measured using the dislocation of the water column of the plethysmometer (Type a, 7140; Plethysmometer, Ugo Basile, Gemonio, Italy) before (V0) and at 1, 2, and 3 h (V1, V2, V3) after i.pl. carrageenan injection. […] Vehicle (1% Tween 80) was administered by the same route as the tested compounds.
Furthermore, we performed the pain pressure threshold test to assess heightened sensitivity to mechanical stimuli. The experiment was conducted based on the method described by Randall and Selitto [58], with certain modifications. An analgesymeter (AnalgesyMeter 37215, Ugo Basile, Gemonio, Italy) was used to gradually apply increasing pressure (measured in grams) to the plantar surface of the right hind paw of the rat until paw withdrawal occurred. At this point, the intensity of the applied force (in grams) was recorded as the withdrawal threshold. The maximum force intensity was set at 250 g. Carrageenan induces a decrease in the nociceptive threshold in response to a mechanical stimulus, a condition referred to as hyperalgesia. For each rat, paw withdrawal thresholds were recorded both before (0 h) and 1, 2, and 3 h after carrageenan administration (i.e., 3.5 h after intraperitoneal pretreatment with the tested compounds). […] The analgesic effect of the tested compounds was assessed in comparison with the control group (1% Tween 80); the injection was performed intraperitoneally within 30 min of carrageenan administration. An analgesic effect occurs when the compound administered produces a pain response with greater pressure than the control group.

[6] = parameters: method as in PMID 35396875; settings: initial in vivo screening; cited from earlier work
[7] = 10 mg/kg i.p., 1 h after carrageenan
[8] = 10 mg/kg i.p., 2 h after carrageenan
[9] = 10 mg/kg i.p., 3 h after carrageenan
[10] = 20 mg/kg i.p., 1 h after carrageenan
[11] = 20 mg/kg i.p., 2 h after carrageenan
[12] = 20 mg/kg i.p., 3 h after carrageenan
[13] = 10 mg/kg i.p., 0 h (before carrageenan)
[14] = 20 mg/kg i.p., 0 h (before carrageenan)

| SMILES | Effect on locomotor activity / sedation [1] | Change in Edema Volume (rats [2]; [7]) | Change in Edema Volume (rats [2]; [8]) | Change in Edema Volume (rats [2]; [9]) | Change in Edema Volume (rats [2]; [10]) [mL] | Change in Edema Volume (rats [2]; [11]) [mL] | Change in Edema Volume (rats [2]; [12]) | Reduction in edema volume (rats [2]; 20 mg/kg, 2 h) [%] | Reduction of glutamate-induced pain reaction (mice [3]; 20 mg/kg i.p.) [%] | Reduction of capsaicin-induced neurogenic pain (mice [4]; 20 mg/kg i.p.) [%] | Pain Threshold (rats [5]; [13]) [g] | Pain Threshold (rats [5]; [8]) | Pain Threshold (rats [5]; [9]) | Pain Threshold (rats [5]; [14]) [g] | Pain Threshold (rats [5]; [10]) [g] | Pain Threshold (rats [5]; [11]) [g] | Pain Threshold (rats [5]; [12]) [g] | Increase in pain threshold (rats [5]; 20 mg/kg, 1 h) [%] | Increase in pain threshold (rats [5]; 20 mg/kg, 2 h) [%] | Increase in pain threshold (rats [5]; 20 mg/kg, 3 h) [%] | also measured |
| --- | --- | --- | --- | --- | --- | --- | --- | --- | --- | --- | --- | --- | --- | --- | --- | --- | --- | --- | --- | --- | --- |
| O=C1c2ccccc2C(=O)N1CC(O)CN1CCN(c2ccccc2)CC1 (centres unmarked) [Compound F1] | mild sedative effects | 1.14 ± 0.05 mL | 1.51 ± 0.09 mL | 1.67 ± 0.09 mL | 1.09 ± 0.02 | 1.15 ± 0.07 | 1.55 ± 0.09 mL | 37.2 | 87.2 | 69.0 | 128.3 ± 1.1 | 142.5 ± 2.1 g | 134.2 ± 2.1 g | 130.0 ± 2.9 | 143.3 ± 2.5 | 148.3 ± 2.8 | 146.7 ± 1.1 | 20.2 | 24.4 | 25 | Reduction in edema volume (rats [2]; 10 mg/kg, 1 h): 27.8%; Reduction in edema volume (rats [2]; 10 mg/kg, 2 h): 17.5%; Reduction in edema volume (rats [2]; 10 mg/kg, 3 h): 17%; Reduction in edema volume (rats [2]; 20 mg/kg, 3 h): 22.1%; Reduction of glutamate-induced pain reaction (mice [3]; 5 mg/kg i.p.): 41.3%; Reduction of glutamate-induced pain reaction (mice [3]; 10 mg/kg i.p.): 82.3%; Reduction of capsaicin-induced neurogenic pain (mice [4]; 5 mg/kg i.p.): 31.7%; Reduction of capsaicin-induced neurogenic pain (mice [4]; 10 mg/kg i.p.): 40.8%; Pain Threshold (rats [5]; [7]): 138.3 ± 2.1 g; Increase in pain threshold (rats [5]; 10 mg/kg, 1 h): 16%; Increase in pain threshold (rats [5]; 10 mg/kg, 2 h): 19.5%; Increase in pain threshold (rats [5]; 10 mg/kg, 3 h): 14.2% |
| COc1ccccc1N1CCN(CC(O)CN2C(=O)c3ccccc3C2=O)CC1 (centres unmarked) [Compound F2] | dose-dependent suppression of spontaneous locomotor activity | 1.51 ± 0.04 ns mL | 1.82 ± 0.03 mL | 1.99 ± 0.02 ns mL | 1.15 ± 0.08 | 1.63 ± 0.04 | 1.91± 0.03 ns mL | 17.7 | 68.7 | 74.7 | 132.5 ± 2.1 | 127.5 ± 1.5 ns g | 130 ± 2.6 ns g | 132.5 ± 2.8 | 147.5 ± 2.5 | 141.7 ± 1.7 | 139.2 ± 0.8 | 10 | 14 | 11.3 | Reduction in edema volume (rats [2]; 10 mg/kg, 2 h): approximately 9%; Reduction in edema volume (rats [2]; 20 mg/kg, 1 h): 26.8%; Reduction of glutamate-induced pain reaction (mice [3]; 5 mg/kg i.p.): 54.3%; Reduction of glutamate-induced pain reaction (mice [3]; 10 mg/kg i.p.): 62.9%; Reduction of capsaicin-induced neurogenic pain (mice [4]; 5 mg/kg i.p.): 31%; Reduction of capsaicin-induced neurogenic pain (mice [4]; 10 mg/kg i.p.): 56%; Effect on pain threshold (in words) (rats [5]; 10 mg/kg, over 1–3 h): lack of analgesic activity |
| O=C1c2ccccc2C(=O)N1CC(O)CN1CCN(c2cccc(C(F)(F)F)c2)CC1 (centres unmarked) [Compound F3] | mild sedative effects | 1.37 ± 0.04 ns mL | 1.70 ± 0.04 ns mL | 1.89 ± 0.03 mL | 1.14 ± 0.05 | 1.47 ± 0.07 | 1.67 ± 0.06 mL | 19.2 | 70 | 48.46 | 134.2 ± 2.4 | 142.5 ± 2.1 g | 137.5 ± 1.7 g | 135.8 ± 1.5 | 148.3 ± 3.3 | 150.8 ± 3.9 | 148.3 ± 3.1 | 11.9 | 19 | 18.6 | Reduction in edema volume (rats [2]; 10 mg/kg, 3 h): 9.5%; Reduction in edema volume (rats [2]; 20 mg/kg, 1 h): 16.8%; Reduction in edema volume (rats [2]; 20 mg/kg, 3 h): 20.1%; Reduction of glutamate-induced pain reaction (mice [3]; 10 mg/kg i.p.): 61%; Pain Threshold (rats [5]; [7]): 141.7 ± 1.7 g; Increase in pain threshold (rats [5]; 10 mg/kg, 1 h): 7%; Increase in pain threshold (rats [5]; 10 mg/kg, 2 h): 12.5%; Increase in pain threshold (rats [5]; 10 mg/kg, 3 h): 10% |
| O=C1c2ccccc2C(=O)N1CC(O)CN1CCN(C(c2ccccc2)c2ccccc2)CC1 (centres unmarked) [Compound F4] | did not impair locomotor activity | 1.37 ± 0.04 mL | 1.56 ± 0.06 mL | 1.85 ± 0.04 mL | 1.23 ± 0.01 | 1.47 ± 0.05 | 1.73 ± 0.02 mL | 21.8 | 53.7 | 57.25 | 131.7 ± 1.7 | 141.7 ± 1.7 g | 139.2 ± 1.2 g | 134.2 ± 1.5 | 144.2 ± 0.8 | 145 ± 1.5 | 140.8 ± 0.8 | 14.4 | 16 | 14.2 | Activity in central (supraspinal) pain model, hot plate test [6]: inactive; Reduction in edema volume (rats [2]; 10 mg/kg, 1 h): 8.7%; Reduction in edema volume (rats [2]; 10 mg/kg, 2 h): 17%; Reduction in edema volume (rats [2]; 10 mg/kg, 3 h): 15.5%; Reduction in edema volume (rats [2]; 20 mg/kg, 1 h): 18%; Reduction in edema volume (rats [2]; 20 mg/kg, 3 h): 21%; Reduction of capsaicin-induced neurogenic pain (mice [4]; 5 mg/kg i.p.): 42%; Reduction of capsaicin-induced neurogenic pain (mice [4]; 10 mg/kg i.p.): 33.6%; Pain Threshold (rats [5]; [7]): 139.2 ± 2.0 g; Increase in pain threshold (rats [5]; 10 mg/kg, 1 h): 10.5%; Increase in pain threshold (rats [5]; 10 mg/kg, 2 h): 13.4%; Increase in pain threshold (rats [5]; 10 mg/kg, 3 h): 12.9% |
